Data set [1] in a line: Aqueous solubility of compound at pH 7.4. The format is physicochemical.
Data set [2] is described as follows: Solubility in 10% 2-hydroxypropyl-B-cyclodextrin. The class given is physicochemical.
Data set [3] concerns the target hERG (KCNH2) (Homo sapiens, UniProt Q12809). Briefly: Inhibition of human ERG at 10 uM by Qpatch method relative to control.
Data set [4] deals with CYP3A. The data set is described as follows: Inhibition of CYP3A in human liver microsomes at 10 uM using testosterone as substrate measured for 10 to 30 mins in presence of NADPH by LC-MS/MS analysis relative to control. The class given is ADME. The conditions noted are these: probe testosterone, time 10-30 min. (In general: Liver microsomes are vesicles of endoplasmic reticulum, rich in cytochrome P450 enzymes.)

The target of data set [5] is CYP2C19 (Homo sapiens, UniProt P33261). Briefly: Inhibition of CYP2C19 in human liver microsomes at 10 uM using S-mephenytoin as substrate measured for 10 to 30 mins in presence of NADPH by LC-MS/MS analysis relative to control. The format is ADME. The conditions noted are these: probe S-mephenytoin, time 10-30 min.
Sequence of CYP2C19 (P33261 whole entry): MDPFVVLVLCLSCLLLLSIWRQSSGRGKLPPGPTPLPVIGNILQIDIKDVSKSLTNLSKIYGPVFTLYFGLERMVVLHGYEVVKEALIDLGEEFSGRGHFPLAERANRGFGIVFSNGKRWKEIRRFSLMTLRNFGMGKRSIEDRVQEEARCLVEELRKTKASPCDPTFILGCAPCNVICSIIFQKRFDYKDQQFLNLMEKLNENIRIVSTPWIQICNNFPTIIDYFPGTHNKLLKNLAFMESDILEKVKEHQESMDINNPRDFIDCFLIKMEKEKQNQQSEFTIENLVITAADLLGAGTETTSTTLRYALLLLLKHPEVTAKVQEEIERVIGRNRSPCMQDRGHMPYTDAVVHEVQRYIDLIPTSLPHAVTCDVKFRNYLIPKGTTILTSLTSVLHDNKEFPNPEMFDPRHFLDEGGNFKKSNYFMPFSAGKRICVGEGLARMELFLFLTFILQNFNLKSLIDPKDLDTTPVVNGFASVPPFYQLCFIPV
The nature of data set [6]: Protein binding in mouse plasma at 1 uM measured after 4 hrs by LC-MS/MS based rapid equilibrium dialysis method. The format is ADME, cell-free. The conditions noted are these: read-out: PPB (converted). (In general: In equilibrium dialysis only unbound substance equilibrates across the membrane.)
For data set [7], the target named is T1, CYP1A2 (Homo sapiens, UniProt P05177).
T1 sequence (P05177 whole entry): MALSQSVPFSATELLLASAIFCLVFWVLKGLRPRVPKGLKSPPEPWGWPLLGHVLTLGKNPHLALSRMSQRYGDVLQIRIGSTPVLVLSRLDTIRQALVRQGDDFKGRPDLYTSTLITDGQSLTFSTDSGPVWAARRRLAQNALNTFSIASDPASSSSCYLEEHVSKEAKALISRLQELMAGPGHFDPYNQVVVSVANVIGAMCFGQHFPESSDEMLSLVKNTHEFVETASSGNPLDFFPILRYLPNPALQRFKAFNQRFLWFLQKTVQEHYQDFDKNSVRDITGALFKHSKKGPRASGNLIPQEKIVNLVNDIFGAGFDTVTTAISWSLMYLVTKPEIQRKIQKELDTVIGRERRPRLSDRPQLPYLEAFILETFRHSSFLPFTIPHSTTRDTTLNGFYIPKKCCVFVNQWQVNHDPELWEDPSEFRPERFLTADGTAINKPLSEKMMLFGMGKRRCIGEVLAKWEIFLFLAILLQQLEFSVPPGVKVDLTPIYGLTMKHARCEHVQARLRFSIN
Briefly: Inhibition of CYP1A2 in human liver microsomes at 10 uM using phenacetin as substrate measured for 10 to 30 mins in presence of NADPH by LC-MS/MS analysis relative to control. The format is ADME. The conditions noted are these: probe phenacetin, time 10-30 min.

Data set [8] in a line: Metabolic stability in mouse liver microsomes assessed as half life measured up to 60 mins in presence of NADPH by LC-MS/MS analysis. The class given is ADME, Microsome.
The nature of data set [9]: Selectivity index, ratio of CC50 for human HepG2 cells to MIC for candida albicans. The format is toxicity. The conditions noted are these: read-out: Selectivity Index.
Data set [10] can be described thus: Cytotoxicity against mouse 3T3 cells assessed as reduction in metabolic activity measured after 24 hrs. The format is ADME, cell-based.
Data set [11] can be described thus: Selectivity index, ratio of CC50 for mouse 3T3 cells to MIC for candida albicans. The format is toxicity. The conditions noted are these: read-out: Selectivity Index.
Data set [12] can be described thus: Cytotoxicity against human HepG2 cells assessed as reduction in metabolic activity measured after 24 hrs. The format is ADME, cell-based.
Data set [13] deals with Candida albicans. The data set is described as follows: Antifungal activity against Candida albicans clinical isolate. The class given is functional.
A short description of data set [14]: Antifungal activity against Mucor ramosissimus ATCC 90286. The class given is functional.
The test system of data set [15] is Mucor circinelloides. The data set is described as follows: Antifungal activity against Mucor circinelloides ATCC 26579. The class given is functional.
The test system of data set [16] is Fusarium solani. The data set is described as follows: Antifungal activity against Fusarium solani ATCC 58877. The format is functional.
For data set [17], the system named is Aspergillus fumigatus. The data set is described as follows: Antifungal activity against Aspergillus fumigatus ATCC 3626. The class given is functional.
The test system of data set [18] is Aspergillus flavus. Briefly: Antifungal activity against Aspergillus flavus ATCC 3631. The class given is functional.
A short description of data set [19]: Antifungal activity against Fusarium falciforme ATCC 3636. The class given is functional.

Structures are written as SMILES. Values after ≈ are worked out from the molar mass of the structure shown.

Sequence of hERG (KCNH2) (Q12809 whole entry): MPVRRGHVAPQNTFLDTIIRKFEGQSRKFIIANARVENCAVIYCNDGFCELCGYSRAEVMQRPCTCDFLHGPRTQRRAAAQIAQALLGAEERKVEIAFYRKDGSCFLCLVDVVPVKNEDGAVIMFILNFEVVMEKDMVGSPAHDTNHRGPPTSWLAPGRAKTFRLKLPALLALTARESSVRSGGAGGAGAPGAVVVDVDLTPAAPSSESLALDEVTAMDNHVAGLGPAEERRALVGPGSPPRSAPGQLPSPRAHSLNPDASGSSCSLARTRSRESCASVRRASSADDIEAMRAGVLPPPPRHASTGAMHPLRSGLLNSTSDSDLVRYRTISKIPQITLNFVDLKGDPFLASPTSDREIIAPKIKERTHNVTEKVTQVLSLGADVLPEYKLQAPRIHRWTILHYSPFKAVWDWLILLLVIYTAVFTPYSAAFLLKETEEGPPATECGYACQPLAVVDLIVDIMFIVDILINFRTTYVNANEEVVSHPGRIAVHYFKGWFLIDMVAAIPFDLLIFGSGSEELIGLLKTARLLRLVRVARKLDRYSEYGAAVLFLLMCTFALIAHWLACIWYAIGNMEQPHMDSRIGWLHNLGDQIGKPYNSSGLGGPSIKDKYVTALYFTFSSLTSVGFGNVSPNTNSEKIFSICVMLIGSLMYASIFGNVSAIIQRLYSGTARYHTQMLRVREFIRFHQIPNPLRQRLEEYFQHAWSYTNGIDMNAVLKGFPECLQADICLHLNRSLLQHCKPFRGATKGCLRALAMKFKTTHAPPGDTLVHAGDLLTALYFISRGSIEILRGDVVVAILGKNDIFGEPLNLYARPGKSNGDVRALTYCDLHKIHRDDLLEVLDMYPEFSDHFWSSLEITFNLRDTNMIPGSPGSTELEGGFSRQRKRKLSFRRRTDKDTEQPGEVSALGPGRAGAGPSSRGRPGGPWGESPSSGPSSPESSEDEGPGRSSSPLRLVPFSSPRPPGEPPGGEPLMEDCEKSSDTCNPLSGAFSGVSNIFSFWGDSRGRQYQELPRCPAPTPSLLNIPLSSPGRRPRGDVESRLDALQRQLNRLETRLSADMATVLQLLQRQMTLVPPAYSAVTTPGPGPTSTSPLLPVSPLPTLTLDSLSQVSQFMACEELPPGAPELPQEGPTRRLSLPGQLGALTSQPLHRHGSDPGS

As to `CC(C)n1c(-c2ccc(C3=CCN(C(=N)N)CC3)cc2)nnc1-c1ccc(C2=CCN(C(=N)N)CC2)cc1`, the figures for the solubility in data set [1] and in [2] were 27 µg/mL (≈ 53 µM) and at most 5000 µg/mL, respectively. The inhibition at 10 µM amounted to 21.6% in [3], 0% in data set [4], 10.3% in data set [5] and 0% in data set [7]. Moreover, the fraction unbound at 4 h, 1 µM in data set [6] was 0.027. Besides, in data set [8], the half-life is over 1 h. In addition, the selectivity ratio in [9] and in [11] was over 1000 each time. Also, the CC50 at 24 h was found to be 297 µM in data set [10] and 751 µM in data set [12]. The MIC50 in [13] was 0.1 µg/mL (≈ 0.196 µM). Also, the MIC in data set [14] is 0.78 µg/mL (≈ 1.53 µM); in data set [15], 0.2 µg/mL (≈ 0.392 µM); in data set [16], under 0.1 µg/mL; in data set [17], under 0.1 µg/mL; in data set [18] it was under 0.1 µg/mL; in data set [19] it was under 0.1 µg/mL.

What is called solubility is how much of the substance goes into solution per volume. Low readings indicate a poorly soluble substance, high ones a readily soluble substance. The inhibition is the change of the read-out against control, counted positive when it falls. As usually defined, the half-life is the time in which the quantity being followed falls by half. One may read the CC50 as the concentration giving 50% cytotoxicity. What is called MIC50 is the lowest concentration that inhibits either 50% of growth or 50% of the strains tested, depending on the study. Read a high MIC50 as weaker potency. In general, MIC refers to the lowest concentration found to suppress growth. Low readings indicate a more susceptible organism, high ones a less susceptible organism.

For the origin of these results see ChEMBL document CHEMBL4673363, “Highly potent, broadly active antifungal agents for the treatment of invasive fungal infections” (Bioorg Med Chem Lett, 2021).
